This assay concerns cells of rat pituitary glands. Put plainly: in vitro assay of growth hormone release from cultured rat pituitary cells (ir GH by radioimmunoassay). The assay is classed as cell-based. The note with it: potency for GH release relative to standard hGRF(1-40)-OH = 100%; equimolar concentrations; incubation 3 to 4 hours. The procedure:
To determine the relative effectiveness of certain representative synthetic peptides to promote the release of growth hormone, in vitro assays are carried out using synthetic hpGRF(1-40)-OH as a standard in side-by-side comparison with equimolar concentrations of the representative analogs which have been synthesized. Cultures are used which include cells of rat pituitary glands removed some three to five days previously. Such cultures are considered optimal for the secretion of growth hormone and are used for the comparative testing, in the general manner described in Vale et al. Endocrinology, 91, 562-572 (1972) and as more particularly described in Vale et al. Endocrinology, 112, 1553-1555 (1983). Incubation with the substance to be tested is carried out for 3 to 4 hours, and aliquots of the culture medium are removed and processed to measure their contents in immunoreactive GH(ir GH) by a well-characterized radioimmunoassay.

This is an account of results in patent publication US4728726A, “GRF analogs IIIb” (The Salk Institute for Biological Studies, priority 1986, dated 1988).

Square brackets hold non-standard residues; d marks the D form. Ends that are not written are not given here. Peptide text beside a SMILES is read from it. Nle = CCCC[C@H](N)C(=O)O

Turning to `CCCC[C@H](NC(=O)[C@@H](NC(=O)[C@H](CC(=O)O)NC(=O)[C@H](CCC(N)=O)NC(=O)[C@H](CC(C)C)NC(=O)[C@H](CC(C)C)NC(=O)[C@H](CCCCN)NC(=O)[C@H](CCCNC(=N)N)NC(=O)[C@H](C)NC(=O)[C@H](CO)NC(=O)[C@H](CC(C)C)NC(=O)[C@H](CCC(N)=O)NC(=O)CNC(=O)[C@H](CC(C)C)NC(=O)[C@@H](NC(=O)[C@H](CCCCN)NC(=O)[C@H](CCCNC(=N)N)NC(=O)[C@H](Cc1ccc(O)cc1)NC(=O)[C@H](CO)NC(=O)[C@H](CC(N)=O)NC(=O)[C@@H](NC(=O)[C@H](Cc1ccccc1)NC(=O)[C@@H](NC(=O)[C@H](C)NC(=O)[C@H](CC(=O)O)NC(=O)[C@@H](C)NC(=O)[C@@H](N)Cc1ccc(O)cc1)[C@@H](C)CC)[C@@H](C)O)C(C)C)[C@@H](C)CC)C(=O)N[C@@H](CC(N)=O)C(=O)N[C@@H](CCCNC(=N)N)C(=O)NCC` [[D-Ala^2, Nle^27, Asn^28]-hGRF(1-29)-NHEt] (H-Y[dA]DAIFTNSYRKVLGQLSARKLLQDI[Nle]NR-NHEt), the Comparison % is recorded as 1714%. Next, `CCCC[C@H](NC(=O)[C@@H](NC(=O)[C@H](CC(=O)O)NC(=O)[C@H](CCC(N)=O)NC(=O)[C@H](CC(C)C)NC(=O)[C@H](CC(C)C)NC(=O)[C@H](CCCCN)NC(=O)[C@H](CCCNC(=N)N)NC(=O)[C@H](C)NC(=O)[C@H](CO)NC(=O)[C@H](CC(C)C)NC(=O)[C@H](CCC(N)=O)NC(=O)CNC(=O)[C@H](CC(C)C)NC(=O)[C@@H](NC(=O)[C@H](CCCCN)NC(=O)[C@H](CCCNC(=N)N)NC(=O)[C@H](Cc1ccc(O)cc1)NC(=O)[C@H](CO)NC(=O)[C@H](CC(N)=O)NC(=O)[C@@H](NC(=O)[C@H](Cc1ccccc1)NC(=O)[C@@H](NC(=O)[C@H](C)NC(=O)[C@H](CC(=O)O)NC(=O)[C@@H](C)NC(=O)[C@@H](N)Cc1ccc(O)cc1)[C@@H](C)CC)[C@@H](C)O)C(C)C)[C@@H](C)CC)C(=O)N[C@@H](CO)C(=O)N[C@@H](CCCNC(=N)N)C(N)=O` [[D-Ala^2, Nle^27]-hGRF(1-29)-NH2]: 429%; `CCCC[C@H](NC(=O)[C@@H](NC(=O)[C@H](CCC(=O)O)NC(=O)[C@H](Cc1c[nH]cn1)NC(=O)[C@H](CC(C)C)NC(=O)[C@H](CC(C)C)NC(=O)[C@H](CCCCN)NC(=O)[C@H](CCCNC(=N)N)NC(=O)[C@H](C)NC(=O)[C@H](Cc1ccc(O)cc1)NC(=O)[C@H](CC(C)C)NC(=O)[C@H](CCC(N)=O)NC(=O)CNC(=O)[C@H](CC(C)C)NC(=O)[C@@H](NC(=O)[C@H](CCCNC(=N)N)NC(=O)[C@H](CCCNC(=N)N)NC(=O)[C@H](Cc1ccc(O)cc1)NC(=O)[C@H](CO)NC(=O)[C@H](CO)NC(=O)[C@@H](NC(=O)[C@H](Cc1ccccc1)NC(=O)[C@@H](NC(=O)[C@H](C)NC(=O)[C@H](CC(=O)O)NC(=O)[C@H](C)NC(=O)[C@@H](N)Cc1c[nH]cn1)[C@@H](C)CC)[C@@H](C)O)[C@@H](C)CC)[C@@H](C)CC)C(=O)N[C@H](CC(N)=O)C(=O)N[C@@H](CCCNC(=N)N)C(N)=O` [[Nle^27, D-Asn^28]-rGRF(1-29)-NH2] (H-HADAIFTSSYRRILGQLYARKLLHEI[Nle][dN]R-NH2): 321%. Next, `CCCC[C@H](NC(=O)[C@@H](NC(=O)[C@H](CC(=O)O)NC(=O)[C@H](CCC(N)=O)NC(=O)[C@H](CC(C)C)NC(=O)[C@H](CC(C)C)NC(=O)[C@H](CCCCN)NC(=O)[C@H](CCCNC(=N)N)NC(=O)[C@H](C)NC(=O)[C@H](CO)NC(=O)[C@H](CC(C)C)NC(=O)[C@H](CCC(N)=O)NC(=O)CNC(=O)[C@H](CC(C)C)NC(=O)[C@@H](NC(=O)[C@H](CCCCN)NC(=O)[C@H](CCCNC(=N)N)NC(=O)[C@H](Cc1ccc(O)cc1)NC(=O)[C@H](CO)NC(=O)[C@H](CC(N)=O)NC(=O)[C@@H](NC(=O)[C@H](Cc1ccccc1)NC(=O)[C@@H](NC(=O)[C@H](C)NC(=O)[C@H](CC(=O)O)NC(=O)[C@H](C)NC(=O)[C@@H](N)Cc1ccc(O)cc1)[C@@H](C)CC)[C@@H](C)O)C(C)C)[C@@H](C)CC)C(=O)N[C@@H](CO)C(=O)N[C@@H](CCCNC(=N)N)C(N)=O` [[Nle^27]-hGRF(1-29)-NH2]: 238%. The molecule “hGRF(1-40)-OH (YADAIFTNSYRKVLGQLSARKLLQDIMSRQQGESNQERGA-OH; UniProt P01286 32-71, looked up, fragment) [synthetic human pancreatic (tumor) GH releasing factor (1-40) free acid, used as standard for this test, reference compound]” gave a Comparison % of 100%.
